{
  "source": "patent US9610359B2",
  "about": "“Methods and compositions related to annexin 1-binding compounds” (Burnham Institute for Medical Research, priority 2009, dated 2017)",
  "key": {"Anxa1-His protein": {"target": "T1, Anxa1-His protein (Homo sapiens, UniProt P04083)", "T1 construct": "Full-length cDNA encoding Anxa1 was obtained from Invitrogen (Carlsbad, Calif.) and subcloned into pET29a vector; His6 (C); made in house; host or cells: bacteria (pET29a vector, Novagen)", "T1 sequence (P04083 1-346)": "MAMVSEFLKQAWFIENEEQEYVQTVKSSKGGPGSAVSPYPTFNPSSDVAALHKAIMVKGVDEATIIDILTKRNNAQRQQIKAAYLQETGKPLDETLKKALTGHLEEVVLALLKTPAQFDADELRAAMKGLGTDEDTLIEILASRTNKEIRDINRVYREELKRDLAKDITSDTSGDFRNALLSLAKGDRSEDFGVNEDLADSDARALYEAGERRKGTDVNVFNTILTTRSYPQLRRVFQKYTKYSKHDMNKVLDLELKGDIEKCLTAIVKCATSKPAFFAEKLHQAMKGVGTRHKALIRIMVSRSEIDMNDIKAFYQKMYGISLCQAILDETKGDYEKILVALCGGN", "assay": "isothermal titration calorimetry (ITC) with Anxa1-His protein", "format": "binding", "conditions": "23° C., 20 mM Tris pH 7.9, 250 mM NaCl, 1 mM CaCl2, 10% dimethylsulfoxide; average n=4, two Anxa1-His preparations", "protocol": "ITC was performed on a VP-ITC calorimeter from Microcal (Northampton, Mass.). In this analysis IF7K3C peptide or […] (SEQ ID NO:12), in which IF7 was modified by inserted with three lysine residues between IF7 and C to increase solubility in water. Eight μl aliquots of solution containing 1.0 or 1.5 mM were injected into the cell containing 100 or 150 μM Anxa1-His protein. In each experiment 37 injections were made. The experiments were performed at 23° C. in buffer containing 20 mM Tris pH 7.9, 250 mM NaCl, 1 mM CaCl2 and 10% dimethylsulfoxide. Experimental data were analyzed using Microcal Origin software provided by the ITC manufacturer (Microcal, Northampton, Mass.)."}, "Anxa1-His6 protein [1]": {"target": "T2, Anxa1-His6 protein (Homo sapiens, UniProt P04083)", "T2 construct": "Full-length cDNA encoding Anxa1 was obtained from Invitrogen (Carlsbad, Calif.) and subcloned into pET29a vector; His6 (C); made in house; host or cells: bacteria (pET29a vector, Novagen)", "T2 sequence (P04083 1-346)": "T1 sequence (P04083 1-346)", "assay": "in vitro plate assay for binding to recombinant Anxa1-His6 protein", "conditions": "4 μg/ml, Tris-HCl pH7.4, 1 mM CaCl2, 0.05% Tween 20", "description": "(§1) FIGS. 1A-1H show the essential role of annexin 1 (Anxa1) in tumor growth and identification of a peptide sequence with tumor vasculature targeting activity in vivo. A and B. Growth of B16 tumors subcutaneously injected into Anxa1(+/−) and Anxa1(−/−) mutant mice. C. Histology of B16 tumors produced in Anxa1(+/−) and Anxa1(−/−) mice. Each scale bar represents 2.00 mm. D. Immunohistochemistry of B16 tumors for CD31 showing endothelial cells and vasculature. Each scale bar represents 200 μm. E. In vivo phage targeting in B16 tumor-bearing mice. Numbers of transformed colonies recovered from the tumor or lung were determined. […] F. In vivo tumor and organ targeting activity of IFLLWQR (SEQ ID NO:2) displaying phage. Phage was injected into B16 tumor bearing mice pre-injected with anti-Anxa1 antibody or with control rabbit IgG. G. In vitro plate assay for binding of IF7-A488 (upper line) and control RQ7-A488C (lower line) to recombinant […] protein produced by bacteria. H. Effect of IF7 (upper line) and control RQ7 (lower line) on binding of FITC-labeled polyacrylamide-LeA oligosaccharide to Anxa1-His6 protein.\n(§2) Full-length cDNA encoding Anxa1 was obtained from Invitrogen (Carlsbad, Calif.) and subcloned into pET29a vector (Novagen) to produce an […] fusion protein. […] After washing the plate, fluorescence was measured by a Molecular Devices Analyst HT plate reader. […]"}, "[2]": {"system": "Lewis lung carcinoma (LLC) tumors", "assay": "in vivo imaging of tumor targeting in dorsal skinfold chamber", "design": "species or system mouse", "conditions": "for vascular staining in tumor tissue sections: 20 min after injection", "protocol": "(A) Lewis lung carcinoma (LLC) tumors were allowed to vascularize for 3 days in dorsal skinfold chamber window in nude mice. Mice were injected with 100 μl of 50 μM IF7-A488 (row a) or RQ7-A488 (row b) in 5% glucose in water. IF7-A488 was also injected to tumor-bearing mice pre-injected with rabbit IgG (row c) or with rabbit anti-Anxa1 antibody (row d). Fluorescence signals were monitored under a fluorescence microscope up to 40 min post-injection. From left: bright field before injection, and fluorescence at 0, 5, 20 min after injection. Far right, the boundary of tumor and stroma at 20 min (Scale bar=500 μm). (B) Quantitative analysis of fluorescence during the course of the analysis shown in A. The line with the highest signal at 10 minutes represents IF&-A488. The line with the second highest signal at 10 minutes represents the control IgG. The line with the third highest signal at 10 minutes represents Anxa-1 antibody. The line with the lowest signal at 10 minutes represents RQ7-A488. Intensity of fluorescence was determined by Image J program. Error bars represent SD (n=3). Asterisks show statistical significance or p<0.0001, t test. (C) Fluorescence micrographs of tumor sections 20 min after injection with IF7-A488 and RQ7-A488. From left: IF7-A488, DAPI, merged, and bright field. […] Experiments were repeated 3 times, and representative results are shown. Arrows indicate fluorescence. (D) Fluorescence remained in circulation in mice with or without subcutaneous B16 tumors. IF7-A488 was injected intravenously through the tail vein, and fluorescence remaining in circulation was measured. Upper line represents “without tumor”, middle line represents “with 3 days tumor”, and bottom line represents “with 6 days tumor.” Error bars represent SD (n=3).\nA Lewis lung carcinoma (LLC) tumor was produced in a donor nude mouse by subcutaneous injection, and small piece of tumor (less than 1 mm^3) was transplanted to a dorsal skinfold chamber in a recipient nude mouse (8-10 weeks female Balb/c nude) as described (Lehr et al., Am J Pathol 1993; 143:1055-62; Oh et al., Nat Biotechnol 2007; 25:327-37). Three days later, the mouse was anesthetized by peritoneal injection of 1.25% 2,2,2-Tribromoethanol ([…]). IF7-A488 or RQ7-A488 (100 μl; […] in 5% glucose solution) was injected through the tail vein. Intravital Alexa 488 signals in the tumor were detected and recorded by a Zeiss Axioplan fluorescence microscope and a digital camera system (DP70 and DP controller, Olympus). For inhibition assays, rabbit anti-Anxa1 antibody (H-65, Santa Cruz) or rabbit IgG (20 μg IgG) was injected 15 minutes prior to IF7-A488 injection. Signal intensity in the tumor from 0 min to 40 min was measured by Image J (NIH, Maryland). After 10 min, irradiation of specimens by a UV lamp was limited only to times when photos were taken to avoid fluorescence bleaching. The tumor was isolated from the dorsal skin folder chamber, fixed with 4% paraformaldehyde at room temperature for 15 min, immersed in O.C.T compound, and cryosections were made. Frozen sections were overlaid with Vectashield containing DAPI (Vector laboratories) and examined under a Zeiss Axioplan fluorescence microscope."}, "[3]": {"assay": "fluorescence remaining in circulation after intravenous injection", "format": "in vivo, mouse", "protocol": "(A) Lewis lung carcinoma (LLC) tumors were allowed to vascularize for 3 days in dorsal skinfold chamber window in nude mice. Mice were injected with 100 μl of 50 μM IF7-A488 (row a) or RQ7-A488 (row b) in 5% glucose in water. IF7-A488 was also injected to tumor-bearing mice pre-injected with rabbit IgG (row c) or with rabbit anti-Anxa1 antibody (row d). Fluorescence signals were monitored under a fluorescence microscope up to 40 min post-injection. From left: bright field before injection, and fluorescence at 0, 5, 20 min after injection. Far right, the boundary of tumor and stroma at 20 min (Scale bar=500 μm). (B) Quantitative analysis of fluorescence during the course of the analysis shown in A. The line with the highest signal at 10 minutes represents IF&-A488. The line with the second highest signal at 10 minutes represents the control IgG. The line with the third highest signal at 10 minutes represents Anxa-1 antibody. The line with the lowest signal at 10 minutes represents RQ7-A488. Intensity of fluorescence was determined by Image J program. […] (C) Fluorescence micrographs of tumor sections 20 min after injection with IF7-A488 and RQ7-A488. […] Arrows indicate fluorescence. (D) Fluorescence remained in circulation in mice with or without subcutaneous B16 tumors. IF7-A488 was injected intravenously through the tail vein, and fluorescence remaining in circulation was measured. […]"}, "[4]": {"assay": "body weights, blood cell counts and blood chemistry of treated nude mice", "format": "in vivo, mouse", "conditions": "daily injection for 10 days, versus no drug injection", "description": "FIGS. 15A, 15B and 15C show body weights (A), blood cell counts (B), and blood chemistry (C) of the nude mice treated with IF7C(RR)-SN38 and RQ7C(RR)-SN38 daily injection for 10 days."}, "Anxa1-His6 protein [5]": {"target": "T2, Anxa1-His6 protein", "assay": "inhibition of binding of FITC-labeled polyacrylamide-LeA oligosaccharide to Anxa1-His6", "description": "as §1, §2"}, "[6]": {"conditions": "100 μl of 50 μM, tail vein, nude mice"}},
  "note": "“Also recorded” adds a separate entry of the source. Residues, ends and D or L forms follow the SMILES beside them. No end group written: not given here.",
  "data": [
    {"compound": "CC[C@H](C)[C@H](N)C(=O)N[C@@H](Cc1ccccc1)C(=O)N[C@@H](CC(C)C)C(=O)N[C@@H](CC(C)C)C(=O)N[C@@H](Cc1c[nH]c2ccccc12)C(=O)N[C@@H](CCC(N)=O)C(=O)N[C@@H](CCCNC(=N)N)C(=O)N[C@@H](CCCCN)C(=O)N[C@@H](CCCCN)C(=O)N[C@@H](CCCCN)C(=O)N[C@@H](CS)C(=O)O", "note": "[IF7K3C] (H-IFLLWQRKKKC-OH; N-terminus and C-terminus assumed)", "values": [
      {"measurement": "Kd", "setting": "Anxa1-His protein", "result": "11 ± 6", "unit": "µM"}
    ]},
    {"compound": "IF7-A488 (IFLLWQRC)", "values": [
      {"measurement": "binding to recombinant Anxa1-His6 protein in plate assay", "setting": "Anxa1-His6 protein [1]", "result": "binds to recombinant Anxa1-His6 protein"},
      {"measurement": "time until fluorescence signals appeared in the tumor", "setting": "[2]; [6]", "result": "within one minute"},
      {"measurement": "time until tumor fluorescence reached a plateau", "setting": "[2]; [6]", "result": 9, "unit": "min"},
      {"measurement": "vascular staining in tumor tissue sections", "setting": "[2]", "result": "vascular staining by IF7-A488; also recorded: detected on endothelial cells of tumor vasculature"},
      {"measurement": "tumor targeting after prior injection of irrelevant rabbit IgG", "setting": "[2]; IgG 15 minutes prior", "result": "did not inhibit IF7-A488 tumor targeting"},
      {"measurement": "tumor fluorescence signals after prior injection of anti-Anxa1 antibody", "setting": "[2]; antibody 15 minutes prior", "result": "significantly reduced"},
      {"measurement": "time tumor fluorescence remained high", "setting": "[2]; or until the experiment was terminated", "result": 40, "unit": "min"},
      {"measurement": "fluorescence remaining in circulation, mice without tumors", "setting": "[3]; control mice without tumors", "result": "remained in circulation after an initial surge"},
      {"measurement": "fluorescence remaining in circulation, B16-tumor-bearing mice", "setting": "[3]; subcutaneous B16 tumors", "result": "complete disappearance from the circulation"}
    ]},
    {"compound": "RQ7-A488 (RQWLLFI; also: Alexa 488 conjugate, site not given here) [reference compound]", "values": [
      {"measurement": "binding to recombinant Anxa1-His6 protein in plate assay", "setting": "Anxa1-His6 protein [1]", "result": "did not bind to Anxa1"},
      {"measurement": "tumor fluorescence signals", "setting": "[2]; [6]", "result": "either not detectable or remained at background levels"},
      {"measurement": "vascular staining in tumor tissue sections", "setting": "[2]", "result": "not RQ7-A488; also recorded: no RQ7-A488 signal was detected"}
    ]},
    {"compound": "RQ7C(RR)-SN38 (RQWLLFICRR; also: SN-38 conjugate, site not given here)", "values": [
      {"measurement": "blood cell counts", "setting": "[4]", "result": "None of the parameters showed significant differences to the control"},
      {"measurement": "blood chemistry", "setting": "[4]", "result": "None of the parameters showed significant differences to the control"},
      {"measurement": "body weights", "setting": "[4]", "result": "None of the parameters showed significant differences to the control"}
    ]},
    {"compound": "RQWLLFI (control peptide) [RQ7, reference compound]", "values": [
      {"measurement": "inhibition of fucosylated carbohydrate (LeA) binding to Anxa1", "setting": "Anxa1-His6 protein [5]", "result": "not by RQ7"}
    ]}
  ]
}
